Measured values taken from ChEMBL document CHEMBL5214920, “Emerging impact of triazoles as anti-tubercular agent” (Eur J Med Chem, 2022).
Values after ≈ are worked out from the molar mass of the structure shown.

What follows are compounds tested on Mycobacterium tuberculosis (assay: Antitubercular activity against Mycobacterium tuberculosis H37Rv assessed as bacterial growth inhibition measured after 24 hrs by agar micro dilution method). Conditions: not given.
Format: functional

SMILES | MIC [µg/mL]
COc1ccccc1C1NN=C2C1Sc1nc(-c3ccc(C)cc3)nn12 (centres undefined) | 3.12 (≈ 8.6 µM)
Cc1ccc(-c2nc3n(n2)C2=NOC(c4cccc([N+](=O)[O-])c4)C2S3)cc1 (centres undefined) | 3.12 (≈ 8.24 µM)
Cc1ccc(-c2nc3n(n2)C2=NNC(c4ccc([N+](=O)[O-])cc4)C2S3)cc1 (centres undefined) | 3.12 (≈ 8.26 µM)
Cc1ccc(-c2nc3n(n2)C2=NOC(c4ccccc4)C2S3)cc1 (centres undefined) | 3.12 (≈ 9.34 µM)
Cc1ccc(-c2nc3n(n2)C2=NOC(c4ccc(N(C)C)cc4)C2S3)cc1 (centres undefined) | 3.12 (≈ 8.28 µM)
Cc1ccc(-c2nc3n(n2)C2=NOC(c4ccc([N+](=O)[O-])cc4)C2S3)cc1 (centres undefined) | 3.12 (≈ 8.24 µM)
Cc1ccc(-c2nc3n(n2)C2=NNC(c4ccc(Cl)cc4)C2S3)cc1 (centres undefined) | 3.12 (≈ 8.49 µM)
Cc1ccc(-c2nc3n(n2)C2=NNC(c4ccc(N(C)C)cc4)C2S3)cc1 (centres undefined) | 3.12 (≈ 8.3 µM)
COc1ccc(C2NN=C3C2Sc2nc(-c4ccc(C)cc4)nn23)cc1 (centres undefined) | 3.12 (≈ 8.6 µM)
Cc1ccc(-c2nc3n(n2)C2=NOC(c4ccc(Cl)cc4)C2S3)cc1 (centres undefined) | 3.12 (≈ 8.47 µM)
Cc1ccc(-c2nc3n(n2)C2=NOC(c4ccc(Br)cc4)C2S3)cc1 (centres undefined) | 3.12 (≈ 7.56 µM)
Cc1ccc(-c2nc3n(n2)C2=NNC(c4ccc(Br)cc4)C2S3)cc1 (centres undefined) | 3.12 (≈ 7.58 µM)
COc1ccc(C2ON=C3C2Sc2nc(-c4ccc(C)cc4)nn23)cc1 (centres undefined) | 3.12 (≈ 8.58 µM)
Cc1ccc(-c2nc3n(n2)C2=NNC(c4cccc([N+](=O)[O-])c4)C2S3)cc1 (centres undefined) | 3.12 (≈ 8.26 µM)
COc1ccccc1C1ON=C2C1Sc1nc(-c3ccc(C)cc3)nn12 (centres undefined) | 3.12 (≈ 8.58 µM)

These compounds were tested on Mycobacterium tuberculosis (assay: Antitubercular activity against Mycobacterium tuberculosis H37Rv ATCC 27294 assessed as bacterial growth inhibition measured after 7 days by MABA method). Conditions: H37Rv ATCC 27294, 168 h, time 7 day.
Format: functional

SMILES | MIC
O=C(Cn1cc(COc2ccc([N+](=O)[O-])cc2)nn1)Nc1ccc(Cl)cc1 | > 25 µg/mL
O=C(Cn1cc(COc2ccccc2)nn1)Nc1ccccc1Cl | > 25 µg/mL
Cc1ccccc1NC(=O)Cn1cc(COc2ccc([N+](=O)[O-])cc2)nn1 | > 25 µg/mL
Cc1ccc(NC(=O)Cn2cc(COc3ccc([N+](=O)[O-])cc3)nn2)cc1 | > 25 µg/mL
COc1ccc(OCc2cn(CC(=O)Nc3ccc(C)cc3)nn2)cc1 | > 25 µg/mL
COc1ccc(OCc2cn(CC(=O)Nc3ccccc3)nn2)cc1 | > 25 µg/mL
O=C(Cn1cc(COc2ccc([N+](=O)[O-])cc2)nn1)Nc1cccc(Cl)c1 | > 25 µg/mL
Cc1cccc(NC(=O)Cn2cc(COc3ccccc3)nn2)c1 | > 25 µg/mL
Cc1cccc(NC(=O)Cn2cc(COc3ccc([N+](=O)[O-])cc3)nn2)c1 | > 25 µg/mL
COc1ccc(OCc2cn(CC(=O)Nc3ccc(Cl)cc3)nn2)cc1 | > 25 µg/mL
O=C(Cn1cc(COc2ccccc2)nn1)Nc1ccc(Cl)cc1 | > 25 µg/mL
COc1ccc(OCc2cn(CC(=O)Nc3ccccc3Cl)nn2)cc1 | > 25 µg/mL
COc1ccc(OCc2cn(CC(=O)Nc3cccc(Cl)c3)nn2)cc1 | > 25 µg/mL
COc1ccc(OCc2cn(CC(=O)Nc3cccc(C)c3)nn2)cc1 | > 25 µg/mL
Cc1ccccc1NC(=O)Cn1cc(COc2ccccc2)nn1 | > 25 µg/mL
O=C(c1ccccc1)C1C(c2cc3ccccc3nc2N2NNc3ccccc32)C2CCCN2C12C(=O)Nc1ccccc12 (centres undefined) | 1.13 µM
O=C(Cn1cc(COc2ccccc2)nn1)Nc1cccc(Cl)c1 | > 25 µg/mL
O=C(Cn1cc(COc2ccc([N+](=O)[O-])cc2)nn1)Nc1ccccc1 | > 25 µg/mL
COc1ccc(OCc2cn(CC(=O)Nc3ccccc3C)nn2)cc1 | > 25 µg/mL
O=C(Cn1cc(COc2ccc([N+](=O)[O-])cc2)nn1)Nc1ccccc1Cl | > 25 µg/mL
Cc1ccc(NC(=O)Cn2cc(COc3ccccc3)nn2)cc1 | > 25 µg/mL

These compounds were tested on Mycobacterium tuberculosis (assay: Antitubercular activity against Mycobacterium tuberculosis H37Rv assessed as bacterial growth inhibition measured after 5 days by MABA method). Conditions: 120 h, time 5 day.
Format: functional

SMILES | MIC | MIC90 [µM]
COc1ccc(-n2ncn(Cc3cc4ccccc4nc3Cl)c2=O)cc1 | 0.078 µM | 
CCc1nn(-c2ccccc2)c(=O)n1N(Cc1ccccc1)Cn1nnc2ccccc21 | 3.12 µg/mL | 
COc1ccc(-n2ncn(Cc3cc4cc(OC)ccc4nc3Cl)c2=O)cc1 | 0.075 µM | 
N/N=c1\ccc2ccccc2o1 | 50 µg/mL | 
CCc1nn(-c2ccccc2)c(=O)n1N(Cc1ccc(O)cc1)CN(CC)CC | 6.25 µg/mL | 
COc1ccc(-n2ncn(Cc3cc4cc(C)ccc4nc3Cl)c2=O)cc1 | 0.077 µM | 
CC1=CC(C)Oc2cc(OCc3cn(Cc4cc(=O)oc5ccc(Cl)cc45)nn3)ccc21 (centres undefined) | 6.25 µg/mL | 
Cc1ccc2nc(O)c(Cn3cnn(-c4ccccc4)c3=O)cc2c1 |  | 0.073 (≈ 0.0243 µg/mL)
CC1=CC(C)Oc2cc(OCc3cn(Cc4cc(=O)oc5ccc6ccccc6c45)nn3)ccc21 (centres undefined) | 6.25 µg/mL | 
COc1ccc2nc(O)c(Cn3cnn(-c4ccccc4)c3=O)cc2c1 | 0.074 µM | 
NC(=O)c1cnccn1 [PYRAZINAMIDE] | 3.12 µg/mL | 

Each compound was assayed on Mycobacterium tuberculosis (assay: Antitubercular activity against Mycobacterium tuberculosis H37Rv ATCC 27294 assessed as bacterial growth inhibition measured after 5 days by MABA method). Conditions: H37Rv ATCC 27294, 120 h, time 5 day.
Format: functional

SMILES | MIC [µg/mL]
Cc1nc2ncccn2c1C(=O)NCc1cn(Cc2ccc(C#N)cc2)nn1 | 1.56 (≈ 4.19 µM)
Cc1nc2ccccn2c1C(=O)NCc1cn(Cc2ccc(C(F)(F)F)cc2)nn1 | 1.56 (≈ 3.76 µM)
C[C@H](CCC(=O)COc1cn(C[C@H]2O[C@@H](n3cnc4c(N)ncnc43)[C@@H]3OC(C)(C)O[C@@H]32)nn1)C12CCCC1C1CCC3C[C@H](O)CC[C@]3(C)C1CC2 (some centres undefined) | 4.09 (≈ 5.58 µM)
COc1ccc2nc(Cl)c(C(=O)NCc3cn(CC(=O)c4ccc(F)cc4)nn3)cc2c1 | 1.6 (≈ 3.53 µM)
O=C(NCc1cn(Cc2ccc(C(F)(F)F)cc2)nn1)c1cn2cccnc2n1 | 1.56 (≈ 3.89 µM)
Cc1nc2ccccn2c1C(=O)NCc1cn(Cc2ccccc2F)nn1 | 1.56 (≈ 4.28 µM)
Cc1nc2ccccn2c1C(=O)NCc1cn(Cc2ccc([N+](=O)[O-])cc2)nn1 | 1.56 (≈ 3.99 µM)
COc1ccc2nc(Cl)c(C(=O)NCc3cn(Cc4ccccc4)nn3)cc2c1 | 1.6 (≈ 3.92 µM)
Cc1ccc(Cn2cc(CNC(=O)c3cn4ccccc4n3)nn2)cc1 | 1.56 (≈ 4.5 µM)
Cc1nc2ncccn2c1C(=O)NCc1cn(Cc2ccc(C(F)(F)F)cc2)nn1 | 1.56 (≈ 3.76 µM)
COc1ccc(Cn2cc(CNC(=O)c3cn4ccccc4n3)nn2)cc1 | 1.56 (≈ 4.3 µM)
O=C(NCc1cn(Cc2ccc([N+](=O)[O-])cc2)nn1)c1cn2cccnc2n1 | 1.56 (≈ 4.12 µM)
COc1ccc(Cn2cc(CNC(=O)c3cc4cc(OC)ccc4nc3Cl)nn2)cc1 | 1.6 (≈ 3.65 µM)
Cc1ccc(Cn2cc(CNC(=O)c3cn4cccnc4n3)nn2)cc1 | 1.56 (≈ 4.49 µM)
O=C(NCc1cn(Cc2ccc([N+](=O)[O-])cc2)nn1)c1cn2ccccc2n1 | 1.56 (≈ 4.13 µM)
COc1ccc(Cn2cc(CNC(=O)c3c(C)nc4ccccn34)nn2)cc1 | 1.56 (≈ 4.14 µM)

SMILES | MIC [µg/mL]
Cc1nc2ncccn2c1C(=O)NCc1cn(Cc2ccccc2F)nn1 | 1.56 (≈ 4.27 µM)
COc1ccc(C(=O)Cn2cc(CNC(=O)c3cc4cc(OC)ccc4nc3Cl)nn2)cc1 | 1.6 (≈ 3.43 µM)
Cc1ccc(Cn2cc(CNC(=O)c3c(C)nc4ccccn34)nn2)cc1 | 1.56 (≈ 4.33 µM)
Cc1ccc(Cn2cc(CNC(=O)c3c(C)nc4ncccn34)nn2)cc1 | 1.56 (≈ 4.32 µM)
COc1ccc2nc(Cl)c(C(=O)NCc3cn(Cc4ccc(C#N)cc4)nn3)cc2c1 | 1.6 (≈ 3.7 µM)
COc1ccc(Cn2cc(CNC(=O)c3c(C)nc4ncccn34)nn2)cc1 | 1.56 (≈ 4.13 µM)
O=C(NCc1cn(Cc2ccc(C(F)(F)F)cc2)nn1)c1cn2ccccc2n1 | 1.56 (≈ 3.9 µM)
Cc1nc2ncccn2c1C(=O)NCc1cn(Cc2ccc([N+](=O)[O-])cc2)nn1 | 1.56 (≈ 3.98 µM)
COc1ccc(Cn2cc(COCc3c(-c4ccc(OC)cc4)nc4ccccn34)nn2)cc1 | 1.56 (≈ 3.42 µM)
O=C(NCc1cn(Cc2ccccc2F)nn1)c1cn2cccnc2n1 | 1.56 (≈ 4.44 µM)
COc1ccc(-c2nc3ccccn3c2COCc2cn(Cc3ccc(C)cc3)nn2)cc1 | 1.56 (≈ 3.55 µM)
COc1ccc(Cn2cc(CNC(=O)c3cn4cccnc4n3)nn2)cc1 | 1.56 (≈ 4.29 µM)
O=C(NCc1cn(Cc2ccccc2F)nn1)c1cn2ccccc2n1 | 1.56 (≈ 4.45 µM)
N#Cc1ccc(Cn2cc(CNC(=O)c3cn4cccnc4n3)nn2)cc1 | 1.56 (≈ 4.35 µM)
COc1ccc(Cn2cc(COCc3c(-c4ccccc4F)nc4ccccn34)nn2)cc1 | 1.56 (≈ 3.52 µM)
NC(=O)c1cnccn1 [PYRAZINAMIDE] | 3.12 (≈ 25.3 µM)
